Measured values taken from patent publication US20110142884A1, “Materials and Methods for Making Improved Micelle Compositions” (The Board of Trustees of the University of Illinois, priority 2002, published 2011).

Columns and labels:
[1] = Circular dichroism (CD) spectral analysis of peptide conformation, % helicity; assay type: physicochemical
Procedure: According to this example, circular dichroism (CD) experiments were performed to determine the conformation changes of VIP in phospholipid micelles, pH and temperature changes, and in aqueous solutions. CD spectra were recorded on a JASCO J-700 spectropolarimeter using a fused quartz cell of 1 cm pathlength. Spectra in 0.15 N saline (pH 6.8) and 5 mM Hepes buffer (pH 7.4) were measured at a peptide concentration of 4 μM and at a lipid concentration of 1 mM. The effects of CaM, pH (6.8 or 7.4) and temperature (25° C. or 37° C.) on VIP conformation were also studied. The conformation of VIP fragments was likewise studied. All measurements were carried out at room temperature (˜25° C.) unless otherwise noted. A bandwidth of 1.0 nm and a step resolution of 0.5 nm were used to collect an average of 9 accumulations/sample at the […] (200-260 nm wavelength). The peptide spectra shown have the background buffer scans, and empty vesicle scans subtracted and were smoothed using the noise reduction function. The temperature during spectral analysis was maintained by using a circulating water bath attached to a jacket surrounding the fused quartz CD cell. The percent helical characterization of VIP was determined by a method of Haghjoo et al., Peptide Research 9 (6):327-331 (1996): % helicity=[−(θ208+4000)/29 000]*100 and are reported in table 1.
According to the example, CD was used to determine the conformation of VIP in saline, Hepes buffer and phospholipid micelles at room temperature and at 37° C. The CD spectra analysis was performed after 13 μg of human VIP incubated with 1 ml PEG-DSPE (1 μmol) micelles for 30 min at room temperature as determined by preliminary studies. A bandwidth of 1.0 nm and a step resolution of 0.5 nm were used to collect an average of 9 accumulations/sample at near UV range (200-260 nm). The temperature was maintained during spectral analysis by a circulating water bath attached to a jacket surrounding the fused quartz CD cell. The evaluation of VIP molecule conformation in SSM by using circular dichroism was successful because the distortion caused by spherical particles was eliminate due to the small size and univesicular structure of the SSM. […] The phospholipid micelles were ideal in our study of VIP conformation since it provided a hydrophobic core similar to the phospholipid bilayer of the SSL. Moreover, both the negative charge, and the hydrophilic layer provided by the PEG mimic the conditions of our SSL and make it possible to infer the VIP conformational results.
According to this example, the method of example 4 was repeated to determine the conformation of VIP in saline and phospholipid micelles plus calmodulin (CaM). CD spectra measurements were performed after 13 μg/ml of VIP was incubated with 1.0 μmol/ml of phospholipid micelles for 30 min followed by 10^−10 M CaM incubated with VIP in phospholipid micelles for 2 h at 4° C. (conjugation paper). A bandwidth of 1.0 nm and a step resolution of 0.5 nm were used to collect the average of 9 accumulations/sample at near UV range (200-260 nm).
According to this example the method of example 4 was repeated to determine the conformation of VIP fragments in saline and phospholipid micelles. CD spectra measurements were performed after incubation of VIP fragments with phospholipid micelles, at a molar concentration equivalent to VIP (i.e. 9 μg/ml for VIP10-28 fragment and 6 μg/ml for VIP1-12 fragment), for 30 min. A bandwidth of 1.0 nm and a step resolution of 0.5 nm were used to collect the average of 9 accumulations/sample at near UV range (200-260 nm). Specifically, CD spectra of human VIP fragment (1-12) and (10-28) in the presence of phospholipid micelles are shown in FIG. 5. […] These effects correlate well with the % helicity of VIP fragments determined in saline and in the presence of phospholipids (Table 1). […]

[2] = test system: mice with collagen-induced arthritis (CIA); experiment: Collagen induced arthritis (CIA) in mice; assay type: in vivo; details: for hind paw thickness (PT) increase: tail vein
Procedure: SSM were prepared as described above in previous examples and by Onyuksel et al. (1999). VIP (1.0 nmol) was incubated with SSM for 2 h at 25° C. Size of VIP-SSM was determined by dynamic light-scattering. The effects of dilution on VIP-SSM were determined by size exclusion chromatography (SEC). Effects of VIP-SSM (1.0 nmol) and VIP in buffer (1.0 nmol and 5.0 nmol) were evaluated in mice with CIA treated on day 22 or 34 post-CIA induction. Clinical arthritis score (CAS) and hind paw thickness (PT) were recorded until day 45 post induction.
VIP, VIP-SSM (each, 0.5, 1.0 & 5.0 nmol), empty micelles, and buffer were injected into the tail vein on day 22 or day 34 post-CIA induction. Clinical arthritis score (CAS) and hind paw thickness (PT) were recorded until day 45 post-CIA induction. Systemic arterial pressure (SAP) was recorded by tail cuff in restrained mice. […] CAS reductions were similar to PT after treatment with α-helix VIP- and aqueous VIP-treated mice.

[3] = test system: mice with collagen-induced arthritis (CIA); details: repeated intraperitoneal administration, 5.0 nmol, Delgado et al. 2001; cited from earlier work
[4] = test system: man; details: infusion in man for 10 hours; cited from earlier work

## vasoactive intestinal peptide [VIP]
[1]; phospholipid micelles (SSM), room temperature
  Conformation from CD spectrum in the presence of phospholipid micelles (SSM): predominantly α-helix conformation
[1]; 37° C.
  % Helicity (in the presence of) Phospholipids: 67%
[1]; room temperature
  % Helicity (in the presence of) Phospholipids: 27%
[1]; saline, 37° C.
  % Helicity (in the presence of) Saline: 2%
[1]; saline, room temperature
  % Helicity (in the presence of) Saline: 5%
  Conformation from CD spectrum in saline: primarily a random coil structure
[2]; 0.5 nmol dose
  hind paw thickness (PT) increase: 85.63±6.20%
[2]; 1.0 nmol dose
  hind paw thickness (PT) increase: 78.66±6.44%
[2]; 1.0 nmol, treated on day 22
  progression of CIA (PT and CAS data): 78.09%
[2]; 1.0 nmol, treated on day 34
  progression of CIA (PT and CAS data): 96.55%
[2]; 5.0 nmol dose
  hind paw thickness (PT) increase: 46.69±6.92%
[2]; 5.0 nmol, treated on day 22
  progression of CIA (PT and CAS data): 56.37%
[2]; 5.0 nmol, treated on day 34
  progression of CIA (PT and CAS data): 69.71%
[3]
  effect on CIA: ameliorates CIA
[4]
  increase of forearm blood flow: 270%
  reduction of total peripheral resistance: 30%
